Holding throughout (assay type): cell-based
Conditions in all cases: single active ingredient

For one assay, the system named is Venturia inaequalis. Briefly: In vitro antifungal synergy assay, growth inhibition in 96-well plates (absorbance), Venturia inaequalis. Here is the method: (§1) Compositions consisting of the active ingredients Zoxamide (A) and Cyflufenamid (B) in different weight ratios were tested to evaluate their in vitro synergistic antifungal activity against the following phytopathogenic fungi: Botrytis cinerea, Sclerotinia minor and Venturia inaequalis by comparing them with the single active ingredients (A) and (B).
(§2) The strains in pure culture are kept and stored at 4° C. in a refrigerator on potato dextrose agar (PDA) nutrient substrates. The fungal inoculum was prepared (which, depending on the species of the pathogen, could be a suspension of conidia or a mycelial homogenate) for carrying out the synergy assays.
(§3) For the strains not easily sporulating in vitro, i.e. Sclerotinia minor and Venturia inaequalis, six to eight pieces of mycelium, taken from actively growing cultures, are transferred into a grinding egg containing 6 ml of double-concentration potato dextrose broth (PDB). and some metal balls. The suspension is homogenized with a Pulverisette 23 mini-mill (Fritsch GmbH).
(§4) In the compositions tested, the weight ratios of Zoxamide (A) with respect to Cyflufenamid (B) range from 500:1 to 1:100. For both molecules tested, a stock solution in dimethyl sulfoxide (DMSO) at 160,000 mg/l was prepared which was then serially diluted in sterile demineralized water to obtain the solutions to be tested at concentrations double with respect to the final doses. More specifically, the compositions of the two fungicide molecules (A) and (B) were tested following a checkerboard matrix in order to have, in this way, all possible combinations of the two fungicides within the weight ratios described above.
(§5) Synergy assays were performed in 96-well plates: 50 μl of inoculum were mixed with 50 μl of solution of the compositions consisting of the two active molecules (A) and (B) in each well using the Eppendorf Multipette® System E3 serial dispenser.
(§6) Three wells were used as replicates for each concentration/active ingredient composition.
(§7) All pathogen strains were grown in untreated control wells containing 50 μl of fungal suspension and 50 μl of sterile demineralized water. The inoculated multi-well plates are incubated at 22° C. for 72 hours or 96 or 120 depending on the type of pathogen.
(§8) The sensitivity to the molecules was evaluated as growth inhibition of the fungus and measured in terms of absorbance immediately before and after the incubation period.
(§9) The absorbance was measured for each well using the Infinite® F50 Absorbance Reader (Tecan Group Ltd) spectrophotometer at 405 nm (for mycelial inoculums) and at 492 nm (for conidic inoculums).
(§10) For each strain, the percentage of growth inhibition (GIP) caused by each of the active-ingredient concentrations was calculated using the following formula: […]
(§11) wherein At72-120 and At0 are respectively the absorbances of the treated well and of the untreated control measured at the end and at the beginning of the incubation period. GIP data were used for calculating the potential synergistic effect of the compositions tested using the formula proposed by Colby (1967):
(§12) [formula] • wherein: • GIPt=GIP expected of the active molecule A and B tested at dose p for molecule • A and dose q for molecule B: • GIPa=GIP expected from the molecule A tested at dose p; • GIPb=GIP expected from the molecule B tested at dose q.
(§13) The synergistic effect of the two molecules is indicated when the effectiveness of the mixed combination of A+B […], is higher than the expected effectiveness calculated with the Colby equation (GIPa+b/GIPt>1), as described in literature in Colby, S. R. (1967): “Calculating synergistic and antagonistic responses of herbicide combinations”, Weeds, 15 (1), pages 20-22.

Another assay relates to Sclerotinia minor. Briefly: In vitro antifungal synergy assay, growth inhibition in 96-well plates (absorbance), Sclerotinia minor. Here is the method:
as §1, §2, §3, §4, §5, §6, §7, §8, §9, §10, §11, §12, §13

In another assay the test system is Botrytis cinerea. Briefly: In vitro antifungal synergy assay, growth inhibition in 96-well plates (absorbance), Botrytis cinerea. Here is the method:
as §1, §2
For the in vitro sporulating strain, i.e. Botrytis cinerea, the conidic suspension was prepared starting from a culture grown on PDA after 4-5 days of incubation in a thermostat at 24° C. to stimulate its sporulation. The conidia were collected in 1 mL of double-concentration PDB and counted under a microscope with a counting chamber to obtain a final inoculum of 4×10^4 conidia/mL.
as §4, §5, §6, §7, §8, §9, §10, §11, §12, §13

2 compounds from patent US20250040545A1, “USE OF SYNERGISTIC COMPOSITIONS BASED ON ZOXAMIDE AND CYFLUFENAMID AS FUNGICIDES IN THE AGRONOMIC FIELD” (Gowan Crop Protection Limited, priority 2023, published 2025) can be followed below.

“And” between values parts separate entries of the source, which are not always exact repeats. Identical values can stand only once.

For `O=C(Cc1ccccc1)N/C(=N\OCC1CC1)c1c(C(F)(F)F)ccc(F)c1F` [Cyflufenamid], the “Effect A, Effect B (GIP)” value is 1.2% with Venturia inaequalis (dose 0.1 mg/l); 5.5% in the assay with Venturia inaequalis (dose 1 mg/l); 10.3% in the assay with Venturia inaequalis (dose 5 mg/l); 12.7% in the assay with Venturia inaequalis (dose 10 mg/l); 15.2% and 12.7% with Venturia inaequalis (dose 50 mg/l); 18.3% and 18.0% in the assay with Venturia inaequalis (dose 100 mg/l). The “Effect A, Effect B (GIP)” value is 3.7% in the assay with Sclerotinia minor (dose 0.1 mg/l); 10.2% with Sclerotinia minor (dose 1 mg/l); 17.8% in the assay with Sclerotinia minor (dose 5 mg/l); 23.4% with Sclerotinia minor (dose 10 mg/l); 1.7% in the assay with Botrytis cinerea (dose 0.1 mg/l); 4.3% in the assay on Botrytis cinerea (dose 1 mg/l). The figures for the “Effect A, Effect B (GIP)” value in the assay on Botrytis cinerea (dose 5 mg/l), with Botrytis cinerea (dose 50 mg/l) and in the assay on Botrytis cinerea (dose 100 mg/l) were 10.6%, 49.4% and 60.2%, respectively.

As to `CCC(C)(NC(=O)c1cc(Cl)c(C)c(Cl)c1)C(=O)CCl` (centres unmarked) [Zoxamide], the “Effect A, Effect B (GIP)” value was 78.0% with Venturia inaequalis (dose 1 mg/l); 78.8% in the assay on Venturia inaequalis (dose 5 mg/l); 80.0% in the assay on Venturia inaequalis (dose 10 mg/l); 80.1% with Venturia inaequalis (dose 50 mg/l); 84.5% and 84.0% in the assay on Venturia inaequalis (dose 100 mg/l); 2.5% in the assay on Sclerotinia minor (dose 0.1 mg/l). Further, the “Effect A, Effect B (GIP)” value in the assay with Sclerotinia minor (dose 1 mg/l) came out at 29.1%; in the assay with Sclerotinia minor (dose 10 mg/l) it was 37.6%; in the assay on Sclerotinia minor (dose 50 mg/l), 58.2%; in the assay on Sclerotinia minor (dose 100 mg/l) it was 70.3%; with Botrytis cinerea (dose 1 mg/l), 5.6%; with Botrytis cinerea (dose 10 mg/l), 31.2%. Further, the “Effect A, Effect B (GIP)” value in the assay on Botrytis cinerea (dose 50 mg/l) stood at 47.3%; in the assay with Botrytis cinerea (dose 100 mg/l) it was 56.9%.
